For assay [1], the target named is Sodium channel protein type 9 subunit alpha (Homo sapiens, UniProt Q15858). The experiment in a line: In Vitro Assay (Protocol 1). On the procedure: (§1) Compounds of Formula (I), were diluted in eight concentrations in the extracellular solution composed of physiological saline, buffered with HEPES (mM): NaCl, 137; KCl, 4; CaCl2, 3.8; MgCl2, 1; HEPES, 10; Glucose, 10; pH 7.4. The […], 50; CsF, 90; MgCl2, 5; EGTA, 5; HEPES, 10; pH 7.2. The duration of exposure of each compound with the cells expressing Nav 1.7 or Nav 1.8 was at least five minutes and the assays were performed at room temperature.The measurements of the sodium currents of Nav 1.8 and Nav 1.7 were obtained using the voltage protocols described below:Protocol 1: A holding voltage of −90 mV was established followed by a voltage phase of 200 ms to −120 mV, followed by a voltage step of 10 mV for 1 second for Nav 1.8 or 0 mV for Nav 1.7, followed by a step of −100 mV for 20 ms, followed by a step of 20 ms for 10 mV for Nav 1.8 or 0 mV for Nav 1.7 (TP1A) before returning to the holding voltage of −90 mV.Protocol 2: A holding voltage of −100 mV was established followed by an inactivation voltage step at −40 mV for 8 seconds, followed by a −100 mV step for […], followed by a 20 ms step for 10 mV for Nav 1.8 or 0 mV for Nav 1.7 (TP1A) before returning to the holding voltage of −100 mV.Protocols were repeated at a frequency of 0.1 Hz and current amplitude was quantified over the TP1A phase log. The variation in the peak amplitude of the current was evaluated according to the Formula described below, after exposure of the cells expressing the channels, at each concentration of the different compounds:%Block=(1-(ITP1A,molecule/ITP1A,basal)×100%,where |TP1A, basal, and |TP1A, molecule represent the entry peaks of sodium currents into TP1A prior to exposure to the compound and in the presence of the compound, respectively.
Sodium channel protein type 9 subunit alpha, sequence (Q15858 whole entry): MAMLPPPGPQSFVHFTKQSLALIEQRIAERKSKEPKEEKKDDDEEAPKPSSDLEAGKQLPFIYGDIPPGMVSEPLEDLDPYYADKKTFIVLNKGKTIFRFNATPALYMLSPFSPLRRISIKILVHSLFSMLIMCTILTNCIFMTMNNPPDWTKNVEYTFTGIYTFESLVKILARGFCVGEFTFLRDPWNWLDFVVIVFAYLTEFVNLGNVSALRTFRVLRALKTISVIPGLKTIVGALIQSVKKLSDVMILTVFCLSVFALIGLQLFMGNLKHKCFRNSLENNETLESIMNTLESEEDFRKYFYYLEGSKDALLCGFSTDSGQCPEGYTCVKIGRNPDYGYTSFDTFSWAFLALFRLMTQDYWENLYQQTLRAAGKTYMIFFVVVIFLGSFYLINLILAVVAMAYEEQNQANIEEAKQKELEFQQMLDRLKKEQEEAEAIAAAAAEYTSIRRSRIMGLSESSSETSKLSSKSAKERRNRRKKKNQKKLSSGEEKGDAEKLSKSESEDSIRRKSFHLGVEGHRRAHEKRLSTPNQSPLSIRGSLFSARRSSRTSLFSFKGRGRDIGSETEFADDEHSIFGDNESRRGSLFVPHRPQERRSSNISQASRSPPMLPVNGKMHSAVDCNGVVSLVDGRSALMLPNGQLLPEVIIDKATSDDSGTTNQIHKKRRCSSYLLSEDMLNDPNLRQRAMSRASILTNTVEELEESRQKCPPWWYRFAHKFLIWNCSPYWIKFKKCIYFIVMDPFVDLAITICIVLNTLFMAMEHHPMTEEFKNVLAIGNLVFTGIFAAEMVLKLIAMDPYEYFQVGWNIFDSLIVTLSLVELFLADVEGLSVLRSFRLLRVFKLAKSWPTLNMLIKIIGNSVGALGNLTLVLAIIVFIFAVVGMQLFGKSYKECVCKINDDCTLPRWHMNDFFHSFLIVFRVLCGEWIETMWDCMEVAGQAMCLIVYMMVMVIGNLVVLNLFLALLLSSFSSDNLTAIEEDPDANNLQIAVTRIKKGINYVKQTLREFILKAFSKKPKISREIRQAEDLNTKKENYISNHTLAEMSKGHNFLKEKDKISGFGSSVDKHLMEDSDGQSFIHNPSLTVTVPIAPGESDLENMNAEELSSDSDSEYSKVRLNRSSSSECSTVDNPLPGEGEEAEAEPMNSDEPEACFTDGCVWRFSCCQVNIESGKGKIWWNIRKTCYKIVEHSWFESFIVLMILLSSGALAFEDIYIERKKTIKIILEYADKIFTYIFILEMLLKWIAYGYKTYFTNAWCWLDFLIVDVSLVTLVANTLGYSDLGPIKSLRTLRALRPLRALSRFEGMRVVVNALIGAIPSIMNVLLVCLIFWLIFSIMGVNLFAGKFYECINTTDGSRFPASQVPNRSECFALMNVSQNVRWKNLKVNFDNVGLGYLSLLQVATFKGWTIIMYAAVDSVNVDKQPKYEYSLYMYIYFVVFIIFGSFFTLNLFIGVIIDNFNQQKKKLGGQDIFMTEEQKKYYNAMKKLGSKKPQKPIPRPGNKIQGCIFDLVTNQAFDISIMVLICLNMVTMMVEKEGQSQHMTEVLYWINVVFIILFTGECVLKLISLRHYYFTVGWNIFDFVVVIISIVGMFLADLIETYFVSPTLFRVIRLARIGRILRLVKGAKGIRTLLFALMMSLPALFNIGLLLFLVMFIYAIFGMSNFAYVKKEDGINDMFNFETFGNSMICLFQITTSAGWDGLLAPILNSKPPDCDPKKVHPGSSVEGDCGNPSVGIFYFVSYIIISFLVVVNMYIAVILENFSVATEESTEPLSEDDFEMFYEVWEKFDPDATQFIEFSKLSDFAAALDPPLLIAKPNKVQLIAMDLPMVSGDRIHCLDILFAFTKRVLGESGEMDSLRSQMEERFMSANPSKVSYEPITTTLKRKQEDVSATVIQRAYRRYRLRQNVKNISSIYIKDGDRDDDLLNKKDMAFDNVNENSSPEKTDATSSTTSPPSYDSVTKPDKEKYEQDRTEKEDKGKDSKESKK

Assay [2] deals with Sodium channel protein type 10 subunit alpha (Homo sapiens, UniProt Q9Y5Y9). The experiment in a line: In Vitro Assay (Protocol 1). As to the method: as §1
Sodium channel protein type 10 subunit alpha, sequence (Q9Y5Y9 whole entry): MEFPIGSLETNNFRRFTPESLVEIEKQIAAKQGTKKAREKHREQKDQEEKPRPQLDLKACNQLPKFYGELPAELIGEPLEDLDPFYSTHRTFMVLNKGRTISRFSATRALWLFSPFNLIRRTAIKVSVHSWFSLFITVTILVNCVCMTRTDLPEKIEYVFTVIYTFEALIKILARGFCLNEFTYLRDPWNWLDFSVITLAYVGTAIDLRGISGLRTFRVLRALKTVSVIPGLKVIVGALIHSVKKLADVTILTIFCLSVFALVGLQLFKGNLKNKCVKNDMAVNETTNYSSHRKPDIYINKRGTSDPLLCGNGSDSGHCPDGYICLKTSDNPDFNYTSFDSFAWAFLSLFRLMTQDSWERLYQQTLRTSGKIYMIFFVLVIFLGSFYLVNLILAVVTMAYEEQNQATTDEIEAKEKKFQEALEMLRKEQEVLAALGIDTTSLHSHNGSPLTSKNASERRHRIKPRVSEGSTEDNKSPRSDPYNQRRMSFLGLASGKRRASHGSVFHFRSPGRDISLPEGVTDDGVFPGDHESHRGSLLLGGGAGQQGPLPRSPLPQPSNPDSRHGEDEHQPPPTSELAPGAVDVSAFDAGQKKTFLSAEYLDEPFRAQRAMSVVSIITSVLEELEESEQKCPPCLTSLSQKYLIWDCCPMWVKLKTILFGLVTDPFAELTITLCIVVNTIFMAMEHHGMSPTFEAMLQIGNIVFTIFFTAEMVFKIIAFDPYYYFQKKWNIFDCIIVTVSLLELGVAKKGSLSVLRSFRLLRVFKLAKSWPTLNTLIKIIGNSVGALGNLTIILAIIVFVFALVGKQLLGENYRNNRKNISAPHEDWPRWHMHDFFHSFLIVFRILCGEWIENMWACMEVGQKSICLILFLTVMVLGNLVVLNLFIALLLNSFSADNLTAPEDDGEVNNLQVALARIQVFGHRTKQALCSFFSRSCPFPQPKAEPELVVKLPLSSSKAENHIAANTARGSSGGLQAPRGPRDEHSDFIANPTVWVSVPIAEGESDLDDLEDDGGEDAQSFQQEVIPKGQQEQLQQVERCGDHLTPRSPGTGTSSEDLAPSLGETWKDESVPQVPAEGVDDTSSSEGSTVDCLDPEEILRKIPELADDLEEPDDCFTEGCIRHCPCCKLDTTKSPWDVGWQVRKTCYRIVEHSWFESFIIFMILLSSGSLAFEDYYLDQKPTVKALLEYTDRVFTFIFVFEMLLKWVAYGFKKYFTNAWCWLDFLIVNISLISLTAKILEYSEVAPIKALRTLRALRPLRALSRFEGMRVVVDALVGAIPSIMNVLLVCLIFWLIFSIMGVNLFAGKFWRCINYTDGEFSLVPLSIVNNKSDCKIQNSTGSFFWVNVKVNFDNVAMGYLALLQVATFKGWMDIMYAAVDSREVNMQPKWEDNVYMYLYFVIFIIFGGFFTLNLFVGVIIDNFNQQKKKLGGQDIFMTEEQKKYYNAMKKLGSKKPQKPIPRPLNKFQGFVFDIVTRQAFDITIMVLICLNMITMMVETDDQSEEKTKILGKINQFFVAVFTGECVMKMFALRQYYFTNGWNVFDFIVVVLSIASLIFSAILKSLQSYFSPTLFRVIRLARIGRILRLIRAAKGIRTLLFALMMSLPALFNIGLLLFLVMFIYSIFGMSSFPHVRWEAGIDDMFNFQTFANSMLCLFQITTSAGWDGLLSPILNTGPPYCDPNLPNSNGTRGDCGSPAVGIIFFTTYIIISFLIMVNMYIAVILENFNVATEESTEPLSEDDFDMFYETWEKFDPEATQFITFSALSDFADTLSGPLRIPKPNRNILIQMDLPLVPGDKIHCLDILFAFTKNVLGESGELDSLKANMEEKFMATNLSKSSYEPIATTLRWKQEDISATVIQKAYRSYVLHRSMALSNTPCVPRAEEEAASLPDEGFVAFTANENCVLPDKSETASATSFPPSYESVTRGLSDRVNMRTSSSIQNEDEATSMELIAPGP

Some results are limits rather than exact numbers.

On to `O=C(N/N=C/c1cccs1)c1ccc(-c2ccc(Cl)cc2)o1` [US20240335420, Compound 1], for which the IC50 in assay [1] and in assay [2] was above 30000 nM in each case.
For `COc1cc(/C=N/NC(=O)c2cccc(-c3ccc(Cl)cc3)n2)cc(OC)c1` [US20240335420, Compound 10], the IC50 came to 362 nM in assay [1] and 1370 nM in assay [2].

One may read the IC50 as the concentration at which inhibition is half-maximal. A low value points to inhibition by little substance.

Values taken from BindingDB's records for patent US20240335420 (Eurofarma, 2024).
